The results in this text go back to patent US8791139B2, “Anthranilic diamide derivatives” (Bayer Cropscience AG, priority 2010, dated 2014).

Values joined by “and” are separate entries in the source; they are usually repeats but may differ in a detail not shown here. Identical values can stand only once.

The first data set is described as follows: logP by HPLC on reversed-phase columns (C18), EEC Directive 79/831 Annex V.A8. The following applies: HPLC reversed-phase C18, acidic range pH 2.7; Preparation Examples (intermediates). The data set is classed as physicochemical. As to the method: The logP values reported in the table above and in the Preparation Examples were determined in accordance with EEC Directive 79/831 Annex V.A8 by HPLC (High Performance Liquid Chromatography) on reversed-phase columns (C18), with the following methods:
The LC-MS determination in the acidic range is carried out at pH 2.7 using the mobile phases 0.1% aqueous formic acid and acetonitrile (contains 0.1% formic acid), linear gradient from 10% acetonitrile to 95% acetonitrile
Calibration was carried out using unbranched alkan-2-ones (having from 3 to 16 carbon atoms) with known logP values (the logP values were determined by the retention times using linear interpolation between two successive alkanones).
The logP is a log measure of how a compound divides between an organic and an aqueous phase. Read a high logP as higher lipophilicity. `COC(=O)c1cc(C#Cc2ccc(OC(F)(F)F)cc2)nn1-c1ncccc1Cl` [Example No. VII, methyl 1-(3-chloropyridin-2-yl)-3-{[4-(trifluoromethoxy)phenyl]ethinyl}-1H-pyrazole-5-carboxylate] returned a logP of 4.46.

“Methyl 1-(3-chloropyridin-2-yl)-3-{(E)-2-[5-(trifluoromethyl)-2H-tetrazol-2-yl]vinyl}-1H-pyrazole-5-carboxylate/methyl 1-(3-chloropyridin-2-yl)-3-{(E)-2-[5-(trifluoromethyl)-1H-tetrazol-1-yl]vinyl}-1H-pyrazole-5-carboxylate [Example No. XIII]”: the logP is 3.37 and 3.49.

The same data set, now with this note: pH 2.7, log P.
`CNC(=O)c1cc(C#N)cc(C)c1NC(=O)c1cc(Nc2cc(C(F)(F)F)ccn2)nn1-c1ncccc1Cl` [Example 70] came in with a chromatographic logP of 2.76.

`CNC(=O)c1cc(Cl)cc(C)c1NC(=O)c1cc(C(=O)Nc2cc(C(F)(F)F)cc(C(F)(F)F)c2)nn1-c1ncccc1Cl` [Example 6] returned a chromatographic logP of 4.16.

Take `Cc1cc(C#N)cc(C(=O)NC(C)(C)C)c1NC(=O)c1cc(N2CCN(Cc3ccc(Cl)nc3)C2=O)nn1-c1ncccc1Cl` [Example 30]: the chromatographic logP came to 3.02.

In turn, `Cc1cc(Cl)cc(C(=O)NC(C)C)c1NC(=O)c1cc(CNS(=O)(=O)Cc2ccc(C(F)(F)F)cc2)nn1-c1ncccc1Cl` [Example 50] had a chromatographic logP of 2.28.

Compound `CNC(=O)c1cc(C#N)cc(C)c1NC(=O)c1cc(Nc2cccc(C(F)(F)F)n2)nn1-c1ncccc1Cl` [Example 69] showed a chromatographic logP of 2.89.

`Cc1cc(Cl)cc(C(N)=O)c1NC(=O)c1cc(C#Cc2ccc(OC(F)(F)F)cc2)nn1-c1ncccc1Cl` [Example 9] displayed a chromatographic logP of 3.94.

`Cc1cc(C#N)cc(C(=O)NC(C)C)c1NC(=O)c1cc(Nc2ccc(C(F)(F)F)c(C(F)(F)F)c2)nn1-c1ncccc1Cl` [Example 72]: the chromatographic logP came to 3.91.

Compound `Cc1cc(Cl)cc(C(N)=O)c1NC(=O)c1cc(C(=O)C(=O)c2ccc(Cl)cc2Cl)nn1-c1ncccc1Cl` [Example 31] displayed a chromatographic logP of 3.51.

In turn, `Cc1cc(Cl)cc(C(=O)NC(C)C)c1NC(=O)c1cc(CNS(=O)(=O)Cc2ccccc2C(F)(F)F)nn1-c1ncccc1Cl` [Example 49] yielded a chromatographic logP of 2.62.

As to `Cc1cc(C#N)cc(C(=O)NC(C)(C)C)c1NC(=O)c1cc(C(=O)Cn2nnc(C(F)(F)F)n2)nn1-c1ncccc1Cl` [Example 16], the chromatographic logP stood at 3.66.

For the compound `CNC(=O)c1cc(C#N)cc(C)c1NC(=O)c1cc(C#Cc2ccc(OC)cc2)nn1-c1ncccc1Cl` [Example 8], the chromatographic logP is 3.11.

Compound `CNC(=O)c1cc(C#N)cc(C)c1NC(=O)c1cc(N2CCN(Cc3ccc(Cl)nc3)C2=O)nn1-c1ncccc1Cl` [Example 29] registered a chromatographic logP of 2.31.

Staying with this data set, now noted: reversed-phase HPLC column (C18), pH 2.7, HPLC reversed-phase C18, acidic range pH 2.7, 0.1% aqueous formic acid/acetonitrile; table of compounds of formula (I); read-out: log P.
In the case of `Cc1cc(Cl)cc(C(=O)NC(C)C)c1NC(=O)c1cc(C(=O)Nc2cc(C(F)(F)F)cc(C(F)(F)F)c2)nn1-c1ncccc1Cl` [Example 7], the chromatographic logP came out at 4.62.

Take `Cc1cc(Cl)cc(C(=O)NC(C)C)c1NC(=O)c1cc(CN(Cc2cc(C(F)(F)F)cc(C(F)(F)F)c2)S(C)(=O)=O)nn1-c1ncccc1Cl` [Example 57]: the chromatographic logP worked out at 4.26.

Turning to `Cc1cc(C#N)cc(C(=O)NC(C)C2CC2)c1NC(=O)c1cc(CN(Cc2cc(C(F)(F)F)cc(C(F)(F)F)c2)S(C)(=O)=O)nn1-c1ncccc1Cl` (stereo not drawn) [Example 61], the chromatographic logP came to 4.12.

Take `Cc1cc(Cl)cc(C(=O)NC(C)C2CC2)c1NC(=O)c1cc(CN(Cc2cc(C(F)(F)F)cc(C(F)(F)F)c2)S(C)(=O)=O)nn1-c1ncccc1Cl` (stereo not drawn) [Example 58]: the chromatographic logP worked out at 4.54.

Take `Cc1cc(Cl)cc(C(=O)NC(C)(C)C)c1NC(=O)c1cc(N2CCN(c3cc(C(F)(F)F)cc(C(F)(F)F)c3)C2=O)nn1-c1ncccc1Cl` [Example 24]: the chromatographic logP was 5.29.

Consider `Cc1cc(C#N)cc(C(=O)NC(C)C)c1NC(=O)c1cc(CN(Cc2cc(C(F)(F)F)cc(C(F)(F)F)c2)S(C)(=O)=O)nn1-c1ncccc1Cl` [Example 60], for which the chromatographic logP stood at 3.91.

Regarding `Cc1cc(Cl)cc(C(=O)NC(C)C)c1NC(=O)c1cc(CNS(=O)(=O)c2cc(C(F)(F)F)ccc2C(F)(F)F)nn1-c1ncccc1Cl` [Example 40], the chromatographic logP amounted to 3.84.

`Cc1cc(Cl)cc(C(=O)NC(C)C)c1NC(=O)c1cc(CNS(=O)(=O)c2ccc(C(F)(F)F)c(C(F)(F)F)c2)nn1-c1ncccc1Cl` [Example 54]: the chromatographic logP stood at 4.

Still in this data set, the particulars now being: reversed-phase HPLC column (C18), pH 2.7, HPLC reversed-phase C18, acidic range pH 2.7; Preparation Examples (intermediates); read-out: logP.
In the case of `COC(=O)c1cc(C2CO2)nn1-c1ncccc1Cl` (stereo not drawn) [Example No. XI, Methyl 1-(3-chloropyridin-2-yl)-3-(oxiran-2-yl)-1H-pyrazole-5-carboxylate], the chromatographic logP came out at 1.67.

Take `O=[N+]([O-])c1ccn(-c2ncccc2Cl)n1` [Example No. XVI, 3-Chloro-2-(3-nitro-1H-pyrazol-1-yl)pyridine]: the chromatographic logP came to 1.83.

For the compound `COC(=O)c1cc(CN(C)S(=O)(=O)Cc2cc(C(F)(F)F)cc(C(F)(F)F)c2)nn1-c1ncccc1Cl` [Example No. V, methyl 3-{[{[3,5-bis(trifluoromethyl)benzyl]sulphonyl}(methyl)amino]methyl}-1-(3-chloropyridin-2-yl)-1H-pyrazole-5-carboxylate], the chromatographic logP came to 3.83.

Turning to `CCOC(=O)c1cc(C(C)=O)nn1-c1ncccc1Cl` [Example No. VII-a, ethyl 3-acetyl-1-(3-chloropyridin-2-yl)-1H-pyrazole-5-carboxylate], the chromatographic logP was 2.31.

For the compound `CN(Cc1cc(C(=O)O)n(-c2ncccc2Cl)n1)S(=O)(=O)Cc1cc(C(F)(F)F)cc(C(F)(F)F)c1` [Example No. III-1, 3-{[{[3,5-bis(trifluoromethyl)benzyl]sulphonyl}(methyl)amino]methyl}-1-(3-chloropyridin-2-yl)-1H-pyrazole-5-carboxylic acid], the chromatographic logP was 3.07.

In the case of `CCOC(=O)c1cc(C(=O)CBr)nn1-c1ncccc1Cl` [Example No. VIII-a, ethyl 3-(bromoacetyl)-1-(3-chloropyridin-2-yl)-1H-pyrazole-5-carboxylate], the chromatographic logP is 2.87.

Regarding `COC(=O)c1cc(N)nn1-c1ncccc1Cl` [Example No. XIX, Methyl 3-amino-1-(3-chloropyridin-2-yl)-1H-pyrazole-5-carboxylate], the chromatographic logP was 1.09.

Regarding `COC(=O)c1cc(Nc2ccc(C(F)(F)F)cn2)nn1-c1ncccc1Cl` [Example No. XX, Methyl 1-(3-chloropyridin-2-yl)-3-{[5-(trifluoromethyl)pyridin-2-yl]amino}-1H-pyrazole-5-carboxylate], the chromatographic logP was 3.14.

Consider `O=C(O)c1cc(C#Cc2ccc(OC(F)(F)F)cc2)nn1-c1ncccc1Cl` [Example No. III-3, 1-(3-chloropyridin-2-yl)-3-{[4-(trifluoromethoxy)phenyl]ethynyl}-1H-pyrazole-5-carboxylic acid], for which the chromatographic logP was 3.36.

As for `CCOC(=O)c1cc(C(=O)Cn2nnc(C(F)(F)F)n2)nn1-c1ncccc1Cl` [Example No. IX, ethyl 1-(3-chloropyridin-2-yl)-3-{[5-(trifluoromethyl)-2H-tetrazol-2-yl]acetyl}-1H-pyrazole-5-carboxylate], the chromatographic logP stood at 3.5.

With `O=C(O)c1cc([N+](=O)[O-])nn1-c1ncccc1Cl` [Example No. XVII, 1-(3-Chloropyridin-2-yl)-3-nitro-1H-pyrazole-5-carboxylic acid], the chromatographic logP worked out at 0.9.
